Test results from publication PMC8025302, “Structural and biophysical characterization of the tandem substrate-binding domains of the ABC importer GlnPQ” (Open Biology, 2021).
Where “and” joins values, the source holds several entries; their conditions need not be identical. Equal entries are not always repeated.

Assays:
[1] = target: T1, SBD1^A (SBD1(T159C/G87C)) (Lactococcus lactis, UniProt Q9CES5, T159C, form not given); test: smFRET / ALEX spectroscopy titration, single SBD1^A; format: binding; details: single domain SBD1^A, Alexa Fluor 555/647, read-out: apparent KD
T1 sequence (Q9CES5 29-251 T159C): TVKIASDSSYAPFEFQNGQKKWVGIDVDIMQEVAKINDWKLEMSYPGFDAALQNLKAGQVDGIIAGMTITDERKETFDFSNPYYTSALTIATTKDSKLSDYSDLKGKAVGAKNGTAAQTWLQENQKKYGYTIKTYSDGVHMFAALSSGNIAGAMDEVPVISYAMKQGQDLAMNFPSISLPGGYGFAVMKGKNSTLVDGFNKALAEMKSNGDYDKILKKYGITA

SBD1 in SBD1-Δ5-SBD2 = target: T2, SBD1 in SBD1-Δ5-SBD2 (Lactococcus lactis, UniProt Q9CES5, DEL252-256); test: Isothermal titration calorimetry, SBD1 site of linker deletion mutant; format: binding; details: ITC
T2 sequence (Q9CES5 27-484 DEL252-256): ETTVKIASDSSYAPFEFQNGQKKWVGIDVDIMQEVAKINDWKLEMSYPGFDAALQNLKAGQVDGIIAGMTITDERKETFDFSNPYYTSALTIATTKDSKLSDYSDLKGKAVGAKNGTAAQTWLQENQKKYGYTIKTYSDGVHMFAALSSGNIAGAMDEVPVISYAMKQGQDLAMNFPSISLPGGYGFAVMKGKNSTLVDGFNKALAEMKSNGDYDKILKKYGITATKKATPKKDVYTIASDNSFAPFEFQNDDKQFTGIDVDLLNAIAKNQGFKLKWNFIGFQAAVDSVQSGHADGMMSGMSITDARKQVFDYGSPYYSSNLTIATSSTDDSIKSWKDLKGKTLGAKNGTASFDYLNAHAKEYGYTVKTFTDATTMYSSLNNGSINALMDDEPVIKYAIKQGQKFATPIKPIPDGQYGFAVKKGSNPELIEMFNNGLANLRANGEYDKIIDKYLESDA

SBD1^A-2 = target: T3, SBD1^A-2 (Lactococcus lactis, UniProt Q9CES5, T159C, form not given); test: smFRET / ALEX spectroscopy titration, tandem SBD1^A-2; format: binding; details: Alexa Fluor 555/647, read-out: apparent KD
T3 sequence (Q9CES5 27-484 T159C): T2 sequence (Q9CES5 27-484 DEL252-256)

SBD1-2(D417F) = target: T4, SBD1-2(D417F) (Lactococcus lactis, UniProt Q9CES5, D417F); test: Isothermal titration calorimetry, tandem variant with inactive SBD2; details: binding to SBD1 in SBD1-2(D417F) (inactive SBD2); ITC
T4 sequence (Q9CES5 27-484 D417F): T2 sequence (Q9CES5 27-484 DEL252-256)

SBD2 in SBD1-Δ5-SBD2 = target: T5, SBD2 in SBD1-Δ5-SBD2 (Lactococcus lactis, UniProt Q9CES5, DEL252-256); test: Isothermal titration calorimetry, SBD2 site of linker deletion mutant; format: binding; details: SBD1-Δ5-SBD2, high-affinity site (SBD2), no asparagine; ITC figure 6f
T5 sequence (Q9CES5 27-484 DEL252-256): T2 sequence (Q9CES5 27-484 DEL252-256)

SBD1-2^C = target: T6, SBD1-2^C (Lactococcus lactis, UniProt Q9CES5, S451C/T369C); test: smFRET / ALEX spectroscopy titration, tandem SBD1-2^C; format: binding; details: Alexa Fluor 555/647, read-out: apparent KD
T6 sequence (Q9CES5 27-484 T369C/S451C): T2 sequence (Q9CES5 27-484 DEL252-256)

[2] = target: T7, SBD2^C (SBD2(T369C/S451C)) (Lactococcus lactis, UniProt Q9CES5, S451C/T369C); test: smFRET / ALEX spectroscopy titration, single SBD2^C; format: binding; details: single domain SBD2^C, Alexa Fluor 555/647, read-out: apparent KD
T7 sequence (Q9CES5 255-484 T369C/S451C): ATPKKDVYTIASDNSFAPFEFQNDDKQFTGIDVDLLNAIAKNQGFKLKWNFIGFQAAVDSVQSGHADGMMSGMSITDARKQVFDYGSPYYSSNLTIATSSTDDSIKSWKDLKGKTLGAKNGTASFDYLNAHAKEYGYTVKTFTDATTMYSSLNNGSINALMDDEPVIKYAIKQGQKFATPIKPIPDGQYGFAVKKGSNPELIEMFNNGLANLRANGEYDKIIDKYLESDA

SBD1(E184W)-2 = target: T8, SBD1(E184W)-2 (Lactococcus lactis, UniProt Q9CES5, E184W); test: Isothermal titration calorimetry, tandem variant with inactive SBD1; details: binding to SBD2 in SBD1-2(E184W) (inactive SBD1); ITC
T8 sequence (Q9CES5 27-484 E184W): T2 sequence (Q9CES5 27-484 DEL252-256)

SMILES | Kd [1] | Kd (SBD1 in SBD1-Δ5-SBD2) | Kd (SBD1^A-2) | Kd (SBD1-2(D417F)) | Kd (SBD2 in SBD1-Δ5-SBD2) | Kd (SBD1-2^C) | Kd [2] | Kd (SBD1(E184W)-2)
NC(=O)C[C@H](N)C(=O)O [asparagine] | 140 nM | 60 nM | 75 nM | 400 ± 60 nM |  |  |  | 
NC(=O)CC[C@H](N)C(=O)O [glutamine] | 130000 nM | 25800 nM and 19000 nM | 300000 nM |  | 1700 nM | 900 nM and ~900 nM | 1500 nM and ~1500 nM | 1500 ± 800 nM
